Laboratory results reported in ChEMBL document CHEMBL4385628, “New insights into the binding mode of pyridine-3-carboxamide inhibitors of E. coli DNA gyrase” (Bioorg Med Chem, 2019).
≈ marks a conversion by molar mass, not a printed value. Calls of active or inactive are those of the source. The calls are words filed in the database; no cut-off is given here.

Experiments:
DNA gyrase = DNA gyrase (Escherichia coli, UniProt P0AES4+P0AES6); test: Inhibition of Escherichia coli DNA gyrase(A2B2 tetramer) preincubated for 5 mins followed by ATP addition and measured once per minute for 20 to 30 minutes by ATPase assay; type: protein-complex assay
Escherichia coli = test: Antibacterial activity against Escherichia coli ATCC 25922 assessed as reduction in microbial growth by CLSI based broth microdilution method; type: functional
Staphylococcus aureus = test: Antibacterial activity against Staphylococcus aureus ATCC 29213 assessed as reduction in microbial growth by CLSI based broth microdilution method; type: functional
[1] = Protein binding in human plasma; type: ADME, cell-free; details: read-out: PPB (converted)
[2] = Half life in human liver microsomes; type: ADME, Microsome
[3] = Apparent permeability across apical to basolateral side in human Caco2 cells; type: ADME, cell-based; details: Caco-2
[4] = biological target: DNA topoisomerase 2-alpha (Homo sapiens) (UniProt P11388); test: Inhibition of human topoisomerase-2alpha up to 100 uM
[5] = Aqueous solubility of compound; type: physicochemical
[6] = Efflux ratio of apparent permeability across basolateral to apical over apical to basolateral side in human Caco2 cells; type: ADME, cell-based; details: Caco-2
[7] = Half life in mouse liver microsomes; type: ADME, Microsome

Chain of DNA topoisomerase 2-alpha (Homo sapiens) (P11388 whole entry): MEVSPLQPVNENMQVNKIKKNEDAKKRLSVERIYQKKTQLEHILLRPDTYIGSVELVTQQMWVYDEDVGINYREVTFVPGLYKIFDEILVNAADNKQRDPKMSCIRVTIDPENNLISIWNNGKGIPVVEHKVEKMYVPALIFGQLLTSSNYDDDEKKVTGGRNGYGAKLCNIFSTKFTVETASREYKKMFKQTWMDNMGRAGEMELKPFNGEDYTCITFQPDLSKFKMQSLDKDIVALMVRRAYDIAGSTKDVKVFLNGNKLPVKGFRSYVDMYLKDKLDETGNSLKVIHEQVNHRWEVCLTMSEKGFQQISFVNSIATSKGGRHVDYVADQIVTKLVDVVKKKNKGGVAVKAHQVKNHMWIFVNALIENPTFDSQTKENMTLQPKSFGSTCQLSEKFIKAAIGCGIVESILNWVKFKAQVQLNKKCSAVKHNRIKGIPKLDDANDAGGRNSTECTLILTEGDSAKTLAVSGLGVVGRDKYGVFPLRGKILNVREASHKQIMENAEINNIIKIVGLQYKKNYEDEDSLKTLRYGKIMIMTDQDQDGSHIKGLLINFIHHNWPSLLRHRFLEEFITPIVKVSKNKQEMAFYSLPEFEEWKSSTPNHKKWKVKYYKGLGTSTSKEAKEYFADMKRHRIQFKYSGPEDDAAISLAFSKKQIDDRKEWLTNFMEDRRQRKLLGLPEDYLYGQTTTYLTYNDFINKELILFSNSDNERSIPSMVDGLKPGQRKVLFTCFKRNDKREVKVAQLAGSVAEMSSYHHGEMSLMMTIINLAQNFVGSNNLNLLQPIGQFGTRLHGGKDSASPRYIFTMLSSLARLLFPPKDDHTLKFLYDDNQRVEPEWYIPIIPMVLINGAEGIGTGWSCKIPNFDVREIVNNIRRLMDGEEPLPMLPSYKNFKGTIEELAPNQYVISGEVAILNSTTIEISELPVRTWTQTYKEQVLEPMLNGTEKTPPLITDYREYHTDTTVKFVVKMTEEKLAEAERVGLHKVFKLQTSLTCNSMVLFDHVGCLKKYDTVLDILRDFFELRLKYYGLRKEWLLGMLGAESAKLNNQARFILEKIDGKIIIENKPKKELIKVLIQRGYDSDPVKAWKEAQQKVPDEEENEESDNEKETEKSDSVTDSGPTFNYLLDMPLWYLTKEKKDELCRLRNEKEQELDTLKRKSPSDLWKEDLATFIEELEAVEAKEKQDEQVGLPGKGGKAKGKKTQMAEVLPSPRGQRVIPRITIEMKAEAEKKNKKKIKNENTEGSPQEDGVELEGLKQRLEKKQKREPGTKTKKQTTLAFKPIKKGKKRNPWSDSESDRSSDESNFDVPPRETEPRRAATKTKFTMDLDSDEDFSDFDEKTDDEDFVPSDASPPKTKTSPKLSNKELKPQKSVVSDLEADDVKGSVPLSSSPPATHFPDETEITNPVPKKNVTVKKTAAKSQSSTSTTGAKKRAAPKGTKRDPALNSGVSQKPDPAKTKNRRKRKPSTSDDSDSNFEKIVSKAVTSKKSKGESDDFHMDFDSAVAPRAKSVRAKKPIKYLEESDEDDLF

Row | Compound | IC50 (DNA gyrase) [nM] | MIC (Escherichia coli) [µg/mL] | MIC (Staphylococcus aureus) [µg/mL] | fraction unbound [1] | half-life [2] [min] | Papp A→B [3] [×10⁻⁶ cm/s] | inhibition [4] | solubility [5] [µM] | efflux ratio [6] | half-life [7] [min]
1 | CCNC(=O)Nc1cc(-n2nccn2)c(C(=O)Nc2cccnc2)cn1 | 150 | > 64 | 64 | – | – | – | – | – | – | –
2 | CCNC(=O)Nc1cc(N2CCC(N)C2)c(C(=O)Nc2cccnc2)cn1 (stereo not given) | 89 | > 64 | > 64 | 0.498 | 290 | 4.02 | inactive | 88.5 (≈ 32.7 µg/mL) | 2.78 | –
3 | CCNC(=O)Nc1cc(N2CCCC2)c(C(=O)Nc2cccnc2)cn1 | 120 | > 64 | 64 | – | – | – | – | – | – | –
4 | CCNC(=O)Nc1cc(-n2ccnn2)c(C(=O)Nc2cccnc2)cn1 | 200 | – | – | – | – | – | – | – | – | –
5 | CCNC(=O)Nc1cc(Nc2ccccc2O)c(C(=O)Nc2cccnc2)cn1 | 410 | > 64 | > 64 | – | – | – | – | – | – | –
6 | CCNC(=O)Nc1cc(Nc2cccc(C)c2)c(C(=O)Nc2cccc(C)c2)cn1 | – | – | – | 0.001 | 46 | < 2.67 | – | 4.26 (≈ 1.72 µg/mL) | – | 58

Other lines, results leading:

Row | IC50 (DNA gyrase) [nM] | MIC (Escherichia coli) [µg/mL] | MIC (Staphylococcus aureus) [µg/mL] | fraction unbound [1] | half-life [2] [min] | Papp A→B [3] [×10⁻⁶ cm/s] | inhibition [4] | solubility [5] [µM] | efflux ratio [6] | half-life [7] [min] | Compound
7 | 19 | > 64 | 4 | 0.028 | 20 | 11.8 | inactive | 2.4 (≈ 0.975 µg/mL) | 2.82 | – | CCNC(=O)Nc1cc(Nc2ccc(OC)cc2)c(C(=O)Nc2cccnc2)cn1
8 | 82 | > 64 | > 64 | – | – | – | – | – | – | – | CCNC(=O)Nc1cc(-n2cncn2)c(C(=O)Nc2cccnc2)cn1
9 | 37 | > 64 | 16 | – | – | – | inactive | – | – | – | CCNC(=O)Nc1cc(-n2cc(Br)cn2)c(C(=O)Nc2cccnc2)cn1
10 | 86 | > 64 | 64 | 0.095 | 128 | 1.23 | inactive | 32.6 (≈ 11.5 µg/mL) | 30.8 | 24 | CCNC(=O)Nc1cc(-n2cccn2)c(C(=O)Nc2cccnc2)cn1
